Normal melting temperature data for one molecule are collected here from the NIST ThermoML archive (doi:10.1016/j.jct.2016.08.034).

± gives the expanded uncertainty stated by the source.

For the data set the following is noted: Crystal; DTA.

In the case of `C=CC(=O)N1CCC[C@@H](n2nc(-c3ccc(Oc4ccccc4)cc3)c3c(N)ncnc32)C1` [Ibrutinib], the Normal melting temperature was 153.13 ± 1.1 °C.
